{
  "source": "paper PMC10865806",
  "about": "“Structural insights into the molecular mechanism of high-level ceftazidime–avibactam resistance conferred by CMY-185” (mBio, 2024)",
  "experiment_in_all_cases": "Competitive inhibition of cephalothin hydrolysis and avibactam inhibition kinetics",
  "format_in_all_cases": "biochemical, Escherichia coli",
  "key": {"CMY-185": {"target": "T1, CMY-185 (Klebsiella pneumoniae, UniProt Q48434, A134E/N366Y/Q140K/V231S)", "T1 construct": "all CMY-2 variant genes encoding the mature enzyme without a signal peptide were cloned into the protein expression plasmid vector pET-30b; made in house; host or cells: E. coli BL21 (DE3), pET-30b", "from_the_text": "(§1) We tested the enzymes, CMY-2, two single mutants V211S (CMY-42) and N346Y, three double mutants A114E_N346Y, Q120K_N346Y, and V211S_N346Y, and the quadruplet mutant CMY-185 to elucidate the impact on the kinetic properties resulting from the four amino acid substitutions present in CMY-185 compared with CMY-2 ([8]). The steady-state kinetic parameters kcat and Km (or Ki app) for nitrocefin, cephalothin, ceftazidime, and cefiderocol and the inhibition parameters Ki app, k2/K, k−2, and koff for avibactam are summarized in Table 1. During the hydrolysis of nitrocefin, we observed the reduction of the initial velocity at concentrations above 50 µM particularly for the CMY-2 variants harboring the N346Y substitution. As this could have represented substrate inhibition, we then determined the kinetics parameters for nitrocefin using the Haldane equation ([16]). […] In addition, during the hydrolysis of cefiderocol by CMY-185, the initial velocities at a concentration range of 3.7–59.4 µM were similar.\n(§2) The steady-state kinetics were carried out on a UV-Visible spectrometer (UV-1280, Shimadzu, Japan) in PBS pH 7.2 at 25°C with a constant amount of enzyme and varying concentrations of the substrates. We tested nitrocefin, cephalothin, ceftazidime, and cefiderocol as the substrates and avibactam as the inhibitor. The steady-state kinetics parameters Km and kcat were determined with the Michaelis-Menten equation. For poorly hydrolyzed substrates, the Km value was assumed to be the competitive inhibition constant (Ki app) value according to previous studies ([17], [19]). Inhibition parameter values of Ki app, k2/K, k−2, and koff for avibactam were determined using a method as described previously ([33]). Cephalothin was used as the reporter substrate for competitive inhibition experiments, and its concentration was fixed at 100 µM. The enzyme concentration was 1–10 nM. Inverse steady-state initial velocities were plotted against the concentration of the competitive inhibitor agents, such as ceftazidime, cefiderocol, and avibactam. The data were analyzed by linear regression analysis of the Dixon plot, and Ki app (observed) was determined by dividing the y-intercept value by the slope of the line. It was then corrected to account for the affinity of cephalothin for each enzyme using the Equation (1):\n(§3) (1) Ki app=Ki app (observed)/{1+[S]/Km (cephalothin)}\n(§4) where [S] represents the concentration of the reporter substrate cephalothin, and Km (cephalothin) is the Km value of cephalothin for each enzyme.\n(§5) The koff value was determined using a jump dilution assay. The enzyme and avibactam were mixed and preincubated at 25°C for 5 min. The concentration of avibactam depended on the enzyme and concentrations 10-fold higher from each Ki app (observed) value were adopted, which were determined based on the corrected competitive inhibition constants Ki app. Preincubated enzyme-avibactam mixture was then diluted 2,000-fold in the 100 µM cephalothin solution, and the hydrolysis of cephalothin was measured. Three independent measurements were performed for each enzyme and substrate or inhibitor combination. Curve fittings using linear or non-linear regression were performed with R 4.1.3 (R Core Team, 2022)."}, "CMY-2": {"target": "T2, CMY-2 (Klebsiella pneumoniae, UniProt Q48434)", "T2 construct": "all CMY-2 variant genes encoding the mature enzyme without a signal peptide were cloned into the protein expression plasmid vector pET-30b; made in house; host or cells: E. coli BL21 (DE3), pET-30b", "from_the_text": "as §1, §2, §3, §4, §5"}, "[1]": {"target": "T3, CMY-2 variant A114E_N346Y (Klebsiella pneumoniae, UniProt Q48434, A134E/N366Y)", "T3 construct": "all CMY-2 variant genes encoding the mature enzyme without a signal peptide were cloned into the protein expression plasmid vector pET-30b; made in house; host or cells: E. coli BL21 (DE3), pET-30b", "from_the_text": "as §1, §2, §3, §4, §5"}, "CMY-2 variant N346Y": {"target": "T4, CMY-2 variant N346Y (Klebsiella pneumoniae, UniProt Q48434, N366Y)", "T4 construct": "all CMY-2 variant genes encoding the mature enzyme without a signal peptide were cloned into the protein expression plasmid vector pET-30b; made in house; host or cells: E. coli BL21 (DE3), pET-30b", "from_the_text": "as §1, §2, §3, §4, §5"}, "[2]": {"target": "T5, CMY-2 variant Q120K_N346Y (Klebsiella pneumoniae, UniProt Q48434, N366Y/Q140K)", "T5 construct": "all CMY-2 variant genes encoding the mature enzyme without a signal peptide were cloned into the protein expression plasmid vector pET-30b; made in house; host or cells: E. coli BL21 (DE3), pET-30b", "from_the_text": "as §1, §2, §3, §4, §5"}, "[3]": {"target": "T6, CMY-2 variant V211S_N346Y (Klebsiella pneumoniae, UniProt Q48434, N366Y/V231S)", "T6 construct": "all CMY-2 variant genes encoding the mature enzyme without a signal peptide were cloned into the protein expression plasmid vector pET-30b; made in house; host or cells: E. coli BL21 (DE3), pET-30b", "from_the_text": "as §1, §2, §3, §4, §5"}, "V211S (CMY-42)": {"target": "T7, V211S (CMY-42) (Klebsiella pneumoniae, UniProt Q48434, V231S)", "T7 construct": "all CMY-2 variant genes encoding the mature enzyme without a signal peptide were cloned into the protein expression plasmid vector pET-30b; made in house; host or cells: E. coli BL21 (DE3), pET-30b", "from_the_text": "as §1, §2, §3, §4, §5"}, "[4]": {"conditions": "reporter substrate cephalothin 100 µM, Dixon plot, read-out: Ki app"}},
  "data": [
    {"smiles": "NC(=O)[C@@H]1CC[C@@H]2CN1C(=O)N2OS(=O)(=O)O", "note": "[Avibactam, avibactam]", "values": [
      {"measurement": "k−2", "setting": "CMY-185; CMY-185, decarbamoylation rate constant", "value": "0.0007 ± 5e-05", "unit": "s⁻¹"},
      {"measurement": "koff", "setting": "CMY-185; CMY-185, jump dilution assay", "value": "4.8e-07", "unit": "s⁻¹"},
      {"measurement": "Ki", "setting": "CMY-185; CMY-185, reporter substrate cephalothin 100 µM, Dixon plot, read-out: Ki app", "value": 1300, "unit": "µM"},
      {"measurement": "fold higher Ki app", "setting": "CMY-185; CMY-185 compared to CMY-2 and V211S", "value": "20,000 fold"},
      {"measurement": "k−2", "setting": "CMY-2; decarbamoylation rate constant", "value": "0.00012 ± 2e-05", "unit": "s⁻¹"},
      {"measurement": "koff", "setting": "CMY-2; jump dilution assay", "value": "7.3e-05", "unit": "s⁻¹"},
      {"measurement": "Ki", "setting": "CMY-2; [4]", "value": 0.063, "unit": "µM"},
      {"measurement": "kinact/KI", "setting": "CMY-2; second-order carbamoylation rate constant, read-out: k2/K", "value": 28000, "unit": "M⁻¹ s⁻¹"},
      {"measurement": "k−2", "setting": "[1]; decarbamoylation rate constant", "value": "0.00011 ± 0", "unit": "s⁻¹"},
      {"measurement": "koff", "setting": "[1]; jump dilution assay", "value": "9e-07", "unit": "s⁻¹"},
      {"measurement": "Ki", "setting": "[1]; [4]", "value": "80 ± 9", "unit": "µM"},
      {"measurement": "fold higher Ki app", "setting": "CMY-2 variant N346Y; N346Y compared to CMY-2 and V211S", "value": "1,000 fold"},
      {"measurement": "k−2", "setting": "CMY-2 variant N346Y; N346Y, decarbamoylation rate constant", "value": "1e-05 ± 0.00016", "unit": "s⁻¹"},
      {"measurement": "koff", "setting": "CMY-2 variant N346Y; N346Y, jump dilution assay", "value": "2.6e-06", "unit": "s⁻¹"},
      {"measurement": "Ki", "setting": "CMY-2 variant N346Y; N346Y, reporter substrate cephalothin 100 µM, Dixon plot, read-out: Ki app", "value": "41 ± 6", "unit": "µM"},
      {"measurement": "fold higher Ki app", "setting": "[2]; Q120K_N346Y compared to CMY-2 and V211S", "value": "10,000 fold"},
      {"measurement": "fold higher Ki app", "setting": "[2]; Q120K_N346Y compared to N346Y", "value": 10, "unit": "fold"},
      {"measurement": "k−2", "setting": "[2]; Q120K_N346Y, decarbamoylation rate constant", "value": "0.002 ± 0.0001", "unit": "s⁻¹"},
      {"measurement": "koff", "setting": "[2]; Q120K_N346Y, jump dilution assay", "value": "4e-06", "unit": "s⁻¹"},
      {"measurement": "Ki", "setting": "[2]; Q120K_N346Y, reporter substrate cephalothin 100 µM, Dixon plot, read-out: Ki app", "value": 590, "unit": "µM"},
      {"measurement": "k−2", "setting": "[3]; decarbamoylation rate constant", "value": "0.00044 ± 0.00021", "unit": "s⁻¹"},
      {"measurement": "koff", "setting": "[3]; jump dilution assay", "value": "2.4e-06", "unit": "s⁻¹"},
      {"measurement": "Ki", "setting": "[3]; [4]", "value": "14 ± 4", "unit": "µM"},
      {"measurement": "k−2", "setting": "V211S (CMY-42); decarbamoylation rate constant", "value": "0.00015 ± 2e-05", "unit": "s⁻¹"},
      {"measurement": "koff", "setting": "V211S (CMY-42); jump dilution assay", "value": "6e-05", "unit": "s⁻¹"},
      {"measurement": "Ki", "setting": "V211S (CMY-42); [4]", "value": 0.034, "unit": "µM"}
    ]}
  ]
}
